The text below walks through data of patent publication US20240148821A1, “PHARMACEUTICAL USE OF CYCLIC PEPTIDE COMPOUND” (CHUGAI SEIYAKU KABUSHIKI KAISHA, priority 2021, published 2024).

Numbered stars: 1 amine (or outer) side, 2 acyl side, 3 side chain; on linkers, the order of the positions; unused ones are H or OH. Bridge positions count the residues as written; N and C are the ends. Square brackets hold non-standard residues; d marks the D form. Peptide text beside a SMILES is read from it. * marks the point of attachment. hPhe(3,5-F2-4-CF3) = N[C@@H](CCc1cc(F)c(C(F)(F)F)c(F)c1)C(=O)O; NMeAbu(3,3-F2-piperidino) = CN[C@@H](CCN1CCCC(F)(F)C1)C(=O)O; hPhe(3-Cl-4-CF3) = N[C@@H](CCc1ccc(C(F)(F)F)c(Cl)c1)C(=O)O; ACHC(1R,2R) = O=C([C@@H]1CCCC[C@H]1N[*:1])[*:2]; NEtPhe(4-Me) = CCN[C@@H](Cc1ccc(C)cc1)C(=O)O; NMeAbu(4,4,4-F3) = CN[C@@H](CC(F)(F)F)C(=O)O; NMePhe(4-Cl) = CN[C@@H](Cc1ccc(Cl)cc1)C(=O)O; NMePhe(4-Me) = CN[C@@H](Cc1ccc(C)cc1)C(=O)O; NMePhe(3-F) = CN[C@@H](Cc1cccc(F)c1)C(=O)O; NMeGly(cPent) = CN[C@H](C(=O)O)C1CCCC1; Phe(3-I) = N[C@@H](Cc1cccc(I)c1)C(=O)O; Pro(4,4-F2) = O=C(O)[C@@H]1CC(F)(F)CN1; X67 = O=C([C@@H]1CCC[C@H]1N[*:1])[*:2]; NMeCha = CN[C@@H](CC1CCCCC1)C(=O)O; NMeChg = CN[C@H](C(=O)O)C1CCCCC1; NMeI = CC[C@H](C)[C@H](NC)C(=O)O; NMeD = CN[C@@H](CC(=O)O)C(=O)O; NMeL = CN[C@@H](CC(C)C)C(=O)O; Cba = N[C@@H](CC1CCC1)C(=O)O; Chg = N[C@H](C(=O)O)C1CCCCC1; NMeNva = CCC[C@H](NC)C(=O)O; NMeV = CN[C@H](C(=O)O)C(C)C; Iva = CC[C@](C)(N)C(=O)O; NMeA = CN[C@@H](C)C(=O)O; NMeAib = CNC(C)(C)C(=O)O; Nle = CCCC[C@H](N)C(=O)O; Piperidide = C1CCN(*)CC1; Pyrrolidide = C1CCN(*)C1; Ac5c = NC1(C(=O)O)CCCC1; Aze = O=C(O)[C@@H]1CCN1; Sar = CNCC(=O)O

The subject of the experiment is Human pancreatic cancer cell line AsPC-1 (G12D mutation Kras). The experiment is described as follows: AsPC-1 cell growth inhibition (AsPC-1 CGI). The format is cell-based. Conditions: read-out: AsPC-1 cell growth inhibition, 50% growth inhibitory concentration (IC50 value); 96 hours, CellTiter-Glo, values classified in ranges.
Method: Test compounds were serially dilated with dimethyl sulfoxide, and 200 nL was then dispensed to a U-bottom 96-well plate using Labcyte Echo. […] The cell suspension was dispensed to a. plate containing a test compound at 100 μL per well and incubated at 37° C. in a 5% carbon dioxide gas incubator. 96 hours later, 80 μL of CellTiter-Glo (Promega) was added to each well and fluorescence was measured.
Turning to `CC[C@H](C)[C@@H]1NC(=O)[C@H](CC(C)C)N(C)C(=O)C[C@@H](C(=O)N2CCCCC2)N(C)C(=O)[C@H](C(C)C)N(C)C(=O)[C@](C)(CC)NC(=O)[C@@H]2CCCN2C(=O)[C@H](CCc2ccc(C(F)(F)F)c(Cl)c2)NC(=O)CN(C)C(=O)[C@H](CC2CCCCC2)N(C)C(=O)[C@@H]2CCN2C(=O)[C@H](C)N(C)C1=O` [Compound 394] ([NMeL]I[NMeA][Aze][NMeCha][Sar][hPhe(3-Cl-4-CF3)]P[Iva][NMeV][NMeD]-Piperidide; lactam N-11), the IC50 was more than 500 nM.
For `CC[C@H](C)[C@@H]1NC(=O)[C@H](CC(C)C)N(C)C(=O)[C@@H]2CCC[C@H]2NC(=O)[C@H](C(C)C)N(C)C(=O)C2(CCCC2)NC(=O)[C@@H]2CCCN2C(=O)[C@H](CCc2ccc(C(F)(F)F)c(Cl)c2)NC(=O)CN(C)C(=O)[C@H](CC2CCCCC2)N(C)C(=O)CN(C)C(=O)CN(C)C1=O` [Compound 347] (cyclo([Ac5c][NMeV][X67][NMeL]I[Sar][Sar][NMeCha][Sar][hPhe(3-Cl-4-CF3)]P)), the IC50 is more than 500 nM.
As for `CC[C@H](C)[C@@H]1NC(=O)[C@H](CC(C)C)N(C)C(=O)C[C@@H](C(=O)N(C)C)N(C)C(=O)[C@H](C2CCCC2)N(C)C(=O)[C@H](C)NC(=O)[C@H](CCN2CCCC(F)(F)C2)N(C)C(=O)[C@H](CCc2ccc(C(F)(F)F)c(Cl)c2)NC(=O)CN(C)C(=O)[C@H](CC2CCCCC2)N(C)C(=O)[C@@H]2CCN2C(=O)[C@H](C)N(C)C1=O` [Compound 1081] ([NMeL]I[NMeA][Aze][NMeCha][Sar][hPhe(3-Cl-4-CF3)][NMeAbu(3,3-F2-piperidino)]A[NMeGly(cPent)][NMeD]-NMe2; lactam N-11), the IC50 was more than 500 nM.
In the case of `CC[C@H](C)[C@@H]1NC(=O)[C@H](C)N(C)C(=O)C[C@@H](C(=O)N2CCCCC2)N(C)C(=O)[C@H](C(C)C)N(C)C(=O)C2(CCCC2)NC(=O)[C@H](Cc2cccc(F)c2)N(C)C(=O)[C@H](CCc2ccc(C(F)(F)F)c(Cl)c2)NC(=O)CN(C)C(=O)[C@H](CC2CCCCC2)N(C)C(=O)CN(C)C(=O)CN(C)C1=O` [Compound 945] ([NMeA]I[Sar][Sar][NMeCha][Sar][hPhe(3-Cl-4-CF3)][NMePhe(3-F)][Ac5c][NMeV][NMeD]-Piperidide; lactam N-11), the IC50 was more than 500 nM.
Take `CC[C@H](C)[C@@H]1NC(=O)[C@H](CC(C)C)N(C)C(=O)C[C@@H](C(=O)N2CCCCC2)N(C)C(=O)[C@H](C2CCCCC2)N(C)C(=O)[C@H](C(C)C)NC(=O)[C@@H]2CCCN2C(=O)[C@H](CCc2ccc(C(F)(F)F)c(Cl)c2)NC(=O)CN(C)C(=O)[C@H](CC2CCCCC2)N(C)C(=O)CN(C)C(=O)CN(C)C1=O` [Compound 1157] ([NMeL]I[Sar][Sar][NMeCha][Sar][hPhe(3-Cl-4-CF3)]PV[NMeChg][NMeD]-Piperidide; lactam N-11): the IC50 was more than 500 nM.
The value for `CC[C@H](C)[C@@H]1NC(=O)[C@H](CC(C)C)N(C)C(=O)C[C@@H](C(=O)N(C)C)N(C)C(=O)[C@H]([C@@H](C)CC)N(C)C(=O)[C@H](C(C)C)NC(=O)[C@H](C)N(C)C(=O)[C@H](CCc2ccc(C(F)(F)F)c(Cl)c2)NC(=O)CN(C)C(=O)[C@H](Cc2ccc(C)cc2)N(C)C(=O)[C@@H]2CCN2C(=O)[C@H](C)N(C)C1=O` [Compound 4] ([NMeL]I[NMeA][Aze][NMePhe(4-Me)][Sar][hPhe(3-Cl-4-CF3)][NMeA]V[NMeI][NMeD]-NMe2; lactam N-11) was more than 500 nM; that for `CC[C@H](C)[C@@H]1NC(=O)[C@H](CC(C)C)N(C)C(=O)C[C@@H](C(=O)N2CCCCC2)N(C)C(=O)[C@H](CC(C)C)NC(=O)C(C)(C)N(C)C(=O)[C@H](Cc2ccc(OC)cc2)NC(=O)[C@H](Cc2cccc(I)c2)NC(=O)CN(C)C(=O)[C@H](CC2CCCCC2)N(C)C(=O)CN(C)C(=O)CN(C)C1=O` [Compound 320] ([NMeL]I[Sar][Sar][NMeCha][Sar][Phe(3-I)]Y(Me)[NMeAib]L[NMeD]-Piperidide; lactam N-11) was more than 500 nM; that for `CC[C@H](C)[C@@H]1NC(=O)[C@H](CC(F)(F)F)N(C)C(=O)C[C@@H](C(=O)N2CCCC2)N(C)C(=O)[C@H](C2CCCCC2)N(C)C(=O)C2(CCCC2)NC(=O)[C@@H]2CC(F)(F)CN2C(=O)[C@H](CCc2ccc(C(F)(F)F)c(Cl)c2)NC(=O)CN(C)C(=O)[C@H](Cc2ccc(C)cc2)N(C)C(=O)CN(C)C(=O)CN(C)C1=O` [Compound 1245] ([NMeAbu(4,4,4-F3)]I[Sar][Sar][NMePhe(4-Me)][Sar][hPhe(3-Cl-4-CF3)][Pro(4,4-F2)][Ac5c][NMeChg][NMeD]-Pyrrolidide; lactam N-11) was not above 20 nM.
With `CC(C)C[C@H]1C(=O)N[C@@H](C2CCCCC2)C(=O)N(C)CC(=O)N(C)CC(=O)N(C)[C@@H](CC2CCCCC2)C(=O)N(C)CC(=O)N[C@@H](CCc2ccc(C(F)(F)F)c(Cl)c2)C(=O)N2CCC[C@H]2C(=O)NC2(CCCC2)C(=O)N(C)[C@@H](C(C)C)C(=O)N(C)[C@H](C(=O)N2CCCCC2)CC(=O)N1C` [Compound 281] ([NMeL][Chg][Sar][Sar][NMeCha][Sar][hPhe(3-Cl-4-CF3)]P[Ac5c][NMeV][NMeD]-Piperidide; lactam N-11), the IC50 is more than 500 nM.
With `CCC[C@H]1C(=O)N[C@@H]([C@@H](C)CC)C(=O)N(C)CC(=O)N(C)CC(=O)N(C)[C@@H](Cc2ccc(C)cc2)C(=O)N(C)CC(=O)N[C@@H](CCc2ccc(C(F)(F)F)c(Cl)c2)C(=O)N2CC(F)(F)C[C@H]2C(=O)NC2(CCCC2)C(=O)N(C)[C@@H](C2CCCCC2)C(=O)N(C)[C@H](C(=O)N2CCCC2)CC(=O)N1C` [Compound 1296] ([NMeNva]I[Sar][Sar][NMePhe(4-Me)][Sar][hPhe(3-Cl-4-CF3)][Pro(4,4-F2)][Ac5c][NMeChg][NMeD]-Pyrrolidide; lactam N-11), the IC50 is not above 20 nM.
For `CC[C@H](C)[C@@H]1NC(=O)[C@H](CC(C)C)NC(=O)[C@@H]2CCCC[C@H]2NC(=O)[C@H](C(C)C)N(C)C(=O)C2(CCCC2)NC(=O)[C@@H]2CCCN2C(=O)[C@H](CCc2ccc(C(F)(F)F)c(Cl)c2)NC(=O)CN(C)C(=O)[C@H](CC2CCCCC2)N(C)C(=O)CN(C)C(=O)CN(C)C1=O` [Compound 569] (cyclo([Ac5c][NMeV][ACHC(1R,2R)]LI[Sar][Sar][NMeCha][Sar][hPhe(3-Cl-4-CF3)]P)), the IC50 is more than 500 nM.
For the molecule `CCCC[C@@H]1NC(=O)[C@H](Cc2cccc(I)c2)NC(=O)CN(C)C(=O)[C@H](Cc2ccc(Cl)cc2)N(C)C(=O)CN(C)C(=O)CN(C)C(=O)[C@H]([C@@H](C)CC)NC(=O)[C@H](CC(C)C)N(C)C(=O)C[C@@H](C(=O)N2CCCCC2)N(C)C(=O)[C@H](CC2CCC2)NC(=O)C(C)(C)N(C)C1=O` [Compound 1422] ([NMeL]I[Sar][Sar][NMePhe(4-Cl)][Sar][Phe(3-I)][Nle][NMeAib][Cba][NMeD]-Piperidide; lactam N-11), the IC50 is more than 500 nM.
As for `CC[C@H](C)[C@@H]1NC(=O)[C@H](CC(C)C)N(C)C(=O)C[C@@H](C(=O)N(C)C)N(C)C(=O)[C@H]([C@@H](C)CC)N(C)C(=O)C2(CCCC2)NC(=O)[C@@H]2CCCN2C(=O)[C@H](CCc2cc(F)c(C(F)(F)F)c(F)c2)NC(=O)CN(C)C(=O)[C@H](Cc2ccc(C)cc2)N(CC)C(=O)[C@@H]2CCN2C(=O)[C@H](C)N(C)C1=O` [Compound 571] ([NMeL]I[NMeA][Aze][NEtPhe(4-Me)][Sar][hPhe(3,5-F2-4-CF3)]P[Ac5c][NMeI][NMeD]-NMe2; lactam N-11), the IC50 is not above 20 nM.
